Values joined by “and” are separate entries in the source; they are usually repeats but may differ in a detail not shown here. Identical values can stand only once. Like-named read-outs stand apart in the source and are kept apart here.
Assays:
[1] = target: T1, human GPR17 (Homo sapiens, UniProt Q13304); test: [35S]GTPγS binding assay; assay type: biochemical
T1 construct: HA; expressed in transfected cells
Procedure: [^35S]GTPγS binding assays were carried out as previously described. Briefly, control and astrocytoma 1321N1 cells stably transfected with human pcDNA3.1 (control cells) and human HA-tag GPR17 were homogenized in 5 mM Tris/HCl and 2 mM EDTA (pH 7.4) and centrifuged at 48,000g for 15 min at 4°C. The resulting pellets were washed in 50 mM Tris/HCl and 10 mM MgCl2 (pH 7.4). After protein dosage, aliquots of cell membranes were incubated with increasing concentrations of each investigated ligand (1 pM–10 μM) and GTPγS binding to activated G-proteins was quantified as previously described. Compounds were purchased from two external providers, i.e., Ambinter (Ambinter c/o Greenpharma, Orléans, France http://www.ambinter.com/) and Asinex (http://www.asinex.com/).
For analysis and graphic presentation of [^35S]GTPγS binding data, a nonlinear multipurpose curve fitting computer program (Graph-Pad Prism) was used. All data are presented as the mean ± SEM of three different experiments.
The selected 15 molecules were evaluated in our in-house [^35S]GTPγS functional assay in membranes from cells transfected with human GPR17. […] Moreover, this assay has been already successfully used in the past to measure the ability of both endogenous and novel synthetic compounds to activate GPR17 [25, 31]. All tested molecules were able to potently activate GPR17 with nanomolar/sub-nanomolar affinities. Concentration-response curves obtained for each selected compound are reported in S4 Fig.

[2] = In vivo mouse DMPK study, single 1 mg/kg subcutaneous dose
Procedure: In vivo DMPK studies were performed as an external service by Aptuit (Verona, Italy) according to standard procedures.
Two compounds were tested in a single dose pharmacokinetic (PK) study in mouse, in which a 1 mg/kg single dose solution (15% Ethanol, 85% PEG400) was administered by subcutaneous injection to naïve CD1 male mice from accredited supplier (n = 3), weighed prior to dosing. Blood samples were collected for 8 time-points (0.25, 0.50, 1, 2, 4, 6, 8, 24 hours).
Plasma samples were prepared and diluted according standard in-house procedures and stored at approximately -20°C, pending analysis. Briefly, blood samples were collected into tubes containing anticoagulant (K3EDTA), stored on ice and centrifuged to prepare plasma within 2 hours of collection. Plasma samples were diluted in Hepes Buffer and deproteinised using CH3CN containing rolipram as internal reference compound for positive ion mode, according standard procedure (20 ng/ml). After vortexing and centrifugation (3000 rpm per 10 min), sample supernatants were transferred in 96 well plate and diluted with water for analysis.
Blood concentrations of the tested compounds and their metabolites were detected through Liquid Chromatography-tandem Mass Spectrometry (QTRAP® 4000 LC-MS/MS System, Sciex). The results for each test compound in plasma were subjected to non-compartmental PK analysis using WinNonlin Phoenix v.6.3 for generation of appropriate PK parameters, reported along with graphical representation of the mean plasma concentration profiles over time.
At 24 hours, animals were sacrificed, and brains were collected and processed for measuring compound concentrations through mass spectrometry.

[3] = test system: OPC-DRG co-cultures; test: In vitro myelination assay; assay type: cell-based, rat OPCs, mouse DRG; details: 10 nM; CTRL 100%; mean ± S.E.M.
Procedure: OPC-DRG co-cultures were prepared according to a previously described protocol.
DRG explants from E14.5 mice were directly put in culture after being plucked off from embryo spinal cords. Then, they were grown in Neurobasal medium (Life Technologies) in presence of 100 ng/ml nerve growth factor (NGF, Sigma-Aldrich), and in presence of 10 μM fluorodeoxyuridine (FUDR, Sigma-Aldrich) in order to remove all non-neuronal cells.
Purified primary rat OPCs were obtained from mixed glial cultures by orbital shaking for 3 hours. […]
At day 15, OPC/DRG co-cultures treated with either the selected compounds or the vehicle were fixed and treated with rat anti-MBP (Millipore), mouse anti-SMI 31 and mouse anti-SMI 32 (Cell Signaling), followed by the secondary goat anti-rat/-mouse antibody, conjugated to Alexa Fluor 555 or Alexa Fluor 488 (Life Technologies). The quantification of myelin segments was performed following a previously described protocol with ZEISS LSM Image Browser by acquiring 6 random fields of 4–5 coverslips for each experimental condition. […] The amount of myelin per axon (myelination index) was calculated as the ratio between the white pixels area and the green pixels area. […]

[4] = mouse, sc, plasma, 1 mg/kg s.c. single dose, CD1 male mice

T1 sequence (Q13304 29-367): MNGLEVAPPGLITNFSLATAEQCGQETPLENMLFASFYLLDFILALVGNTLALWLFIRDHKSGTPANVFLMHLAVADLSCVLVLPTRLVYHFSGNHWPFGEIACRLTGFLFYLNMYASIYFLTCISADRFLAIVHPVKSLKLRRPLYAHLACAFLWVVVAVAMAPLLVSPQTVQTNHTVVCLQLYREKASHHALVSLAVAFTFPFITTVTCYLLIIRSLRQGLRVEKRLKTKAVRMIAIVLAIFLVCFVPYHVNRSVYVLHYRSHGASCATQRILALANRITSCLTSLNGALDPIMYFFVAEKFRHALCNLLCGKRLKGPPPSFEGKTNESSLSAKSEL

Cc1cccc(NC(=O)CN2C(=O)CC(c3ccccc3)=Nc3ccccc32)c1C [Compound 18]
EC50 ([1]; membranes of 1321N1 cells transfected with human GPR17, mean ± SEM of 3 experiments): 1.68 ± 0.1 nM
% Emax (ratio vs Emax of the standard) ([1]; standard LTC4 50 nM set to 100% (¶ compounds)): 104.6%
Emax (% vs basal) ([1]; vs basal, mean ± SEM): 147.5 ± 5.8%
Plasma concentration, individual mice ([2]; 0.50 h, 1 mg/kg s.c., 1 mg/kg): 29.4 ng/mL and 23.0 ng/mL
Plasma concentration, individual mice ([2]; 1.00 h, 1 mg/kg s.c., 1 mg/kg): 25.5 ng/mL and 30.8 ng/mL
Plasma concentration, individual mice ([2]; 2.00 h, 1 mg/kg s.c., 1 mg/kg): 6.2 ng/mL and 13.0 ng/mL and 13.3 ng/mL
Plasma concentration, individual mice ([2]; 4.00 h, 1 mg/kg s.c., 1 mg/kg): 0.7 ng/mL and 2.5 ng/mL and 1.5 ng/mL
concentration at 0.5 h ([2]; male, CD1, mouse, plasma, sc, 1 mg/kg, 0.50 h, 1 mg/kg s.c., n=3 mice, read-out: Plasma concentration, Mean): 23.3 ng/mL
concentration at 0.5 h ([2]; male, CD1, mouse, plasma, sc, 1 mg/kg, 0.50 h, 1 mg/kg s.c., read-out: Plasma concentration, individual mice): 17.4 ng/mL
concentration at 1 h ([2]; male, CD1, mouse, plasma, sc, 1 mg/kg, 1.00 h, 1 mg/kg s.c., n=3 mice, read-out: Plasma concentration, Mean): 25.7 ng/mL
concentration at 1 h ([2]; male, CD1, mouse, plasma, sc, 1 mg/kg, 1.00 h, 1 mg/kg s.c., read-out: Plasma concentration, individual mice): 20.7 ng/mL
concentration at 2 h ([2]; male, CD1, mouse, plasma, sc, 1 mg/kg, 2.00 h, 1 mg/kg s.c., n=3 mice): 10.8 ng/mL
concentration at 4 h ([2]; male, CD1, mouse, plasma, sc, 1 mg/kg, 4.00 h, 1 mg/kg s.c., read-out: Plasma concentration, Mean): 1.6 ng/mL
concentration at 6 h ([2]; male, CD1, mouse, plasma, sc, 1 mg/kg, 6.00 h, 1 mg/kg s.c., read-out: Plasma concentration, individual mice): 0.8 ng/mL
concentration at 4 h ([2]; male, CD1, mouse, plasma, sc, 1 mg/kg, plasma, 1 mg/kg s.c. single dose, CD1 male mice, read-out: Clast): 1 ng/mL
AUC(0-t) [2, 4]: 46.7 ng·h/mL
Cmax [2, 4]: 26.4 ng/mL
Tmax [2, 4]: 60 min
half-life [2, 4]: 45.5 min
Metabolites found in vivo ([2]; plasma after s.c. administration in mice): 5
Tlast ([2]; plasma, 1 mg/kg s.c. single dose, CD1 male mice): 4.00 h
Myelination Index [3]: 144.7 ± 14.28%

— paper PMC7176092, “Development of the first in vivo GPR17 ligand through an iterative drug discovery pipeline: A novel disease-modifying strategy for multiple sclerosis” (PLoS ONE, 2020)
